Values of other authors as cited in patent US20230003743A1, “METHODS AND COMPOSITIONS FOR TREATING OR PREVENTING AN ALLERGY OR ANAPHYLAXIS” (THE CHILDREN'S MEDICAL CENTER CORPORATION, priority 2020, published 2023).

Tested on: humanized mouse model of FA
Conditions: SCID mice engrafted with human CD34+ hematopoietic stem cells, peanut-sensitized, enterally challenged with PN

Omalizumab
anaphylactic response (hypothermia, increases in plasma tryptase levels) upon enteral peanut challenge: ablates this anaphylactic response
